Results as given in patent publication US11938212B2, “Skin care compositions” (Colgate-Palmolive Company, priority 2022, dated 2024).

How the values were obtained:
[1] = test system: human derived keratinocytes; assay: ROS detection in H2O2-treated human derived keratinocytes (Example 3: alpha-tocopherol, EGT, niacinamide); type: cell-based; conditions: alpha-tocopherol 0.001% as printed, EGT 0.01%, niacinamide 0.01%; for % Decrease in ROS generated in keratinocyte by antioxidant treatment: 0.3 wt.% H2O2; for Fold Change, decrease in ROS generated in keratinocyte by antioxidant treatment (relative to untreated): vs F (0.1% DMSO + 0.3% H2O2)
Method: Hydrogen peroxide treated cells were then treated with: alpha-tocopherol, ergothioneine and niacinamide, respectively and in combination.
Cellular ROS/Superoxide Detection Assay Kit (Abcam—ab139476)

[2] = test system: human derived keratinocytes; assay: ROS detection in H2O2-treated human derived keratinocytes (Example 2: alpha-tocopherol, EGT, sodium PCA); conditions: vs F (0.1 wt.% DMSO + 0.3 wt.% H2O2); alpha-tocopherol 0.001%, EGT 0.01%, Na PCA 0.01%; 30 min treatment
Method: Keratinocytes were treated with exogenous 0.3 wt. % hydrogen peroxide to induce reactive oxygen species (ROS) production. […] Changes in ROS production were assessed using a ROS Detection Assay Kit and fluorescence microplate reader.
Cell Culture Treatment • 500 uL of each treatment sample was directly applied to the 24-well plates and incubated for 30 mins. • Post incubation: each well was washed with the wash buffer (1×) provided. • 250 uL of green Fluorescent (GF) dye containing media (2.5 uL of GF dye/250 uL of media) was then added to each well and incubate for 60 mins. • Post incubation, Fluorescence was read on a microplate reader at 490/525.

Row | SMILES | % Decrease in ROS generated in keratinocyte by antioxidant treatment [1] [%] | Fold Change, decrease in ROS generated in keratinocyte by antioxidant treatment (relative to untreated) [2] | Fold Change, decrease in ROS generated in keratinocyte by antioxidant treatment (relative to untreated) [1]
1 | O=C1CCC(C(=O)[O-])N1.[Na+] (stereo not drawn) [Na PCA, sodium pyrrolidone carboxylic acid] | 25.75 | 2.25-fold decrease | 
2 | C[N+](C)(C)[C@@H](Cc1c[nH]c(=S)[nH]1)C(=O)[O-] [EGT, Ergothioneine] | 15.91 | 4.43-fold decrease | 0.31-fold fold decrease
3 | NC(=O)c1cccnc1 [Niacinamide, niacinamide] |  |  | 0.24-fold fold decrease
4 | Cc1c(C)c2c(c(C)c1O)CC[C@@](C)(CCC[C@H](C)CCC[C@H](C)CCCC(C)C)O2 [Alpha-tocopherol, alpha-tocopherol] | 20.79 | 4.21-fold decrease | 0.4-fold fold decrease
